Data on 21 molecules can be found in ChEMBL document CHEMBL1130164 (J Med Chem, 1997).

A value given as a limit tells only on which side of the number the result lay.

The target in test [1] is cAMP-dependent protein kinase catalytic subunit alpha (Homo sapiens, UniProt P17612). The experiment in a line: Inhibitory concentration against recombinant human cAMP-dependent Protein kinase A.
Test [2] concerns the target Protein kinase C alpha type (Homo sapiens, UniProt P17252). Put plainly: Inhibitory concentration against recombinant human Protein kinase C alpha isozyme.
Test [3] deals with Protein kinase C gamma type (Homo sapiens, UniProt P05129). The experiment in a line: Inhibitory concentration against recombinant human Protein kinase C gamma isozyme.
In test [4] the target is T1, Protein kinase C zeta type (Homo sapiens, UniProt Q05513).
T1 sequence (Q05513 whole entry): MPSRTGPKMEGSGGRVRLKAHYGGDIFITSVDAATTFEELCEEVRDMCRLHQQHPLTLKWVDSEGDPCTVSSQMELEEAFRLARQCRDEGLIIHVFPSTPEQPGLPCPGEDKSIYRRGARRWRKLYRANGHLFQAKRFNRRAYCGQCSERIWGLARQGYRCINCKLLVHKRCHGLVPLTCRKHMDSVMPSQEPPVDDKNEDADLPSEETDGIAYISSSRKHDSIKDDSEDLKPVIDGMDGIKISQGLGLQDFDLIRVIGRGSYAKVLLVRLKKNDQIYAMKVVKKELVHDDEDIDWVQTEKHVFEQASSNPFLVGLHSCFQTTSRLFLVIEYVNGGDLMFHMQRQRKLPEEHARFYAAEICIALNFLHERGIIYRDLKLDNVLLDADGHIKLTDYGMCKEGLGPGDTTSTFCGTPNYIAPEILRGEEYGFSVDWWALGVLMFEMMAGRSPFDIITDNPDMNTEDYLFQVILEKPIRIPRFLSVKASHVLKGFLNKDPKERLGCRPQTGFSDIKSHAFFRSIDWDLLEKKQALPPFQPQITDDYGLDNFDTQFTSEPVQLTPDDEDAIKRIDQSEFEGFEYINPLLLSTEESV
Put plainly: Inhibitory concentration against recombinant human Protein kinase C zeta isozyme.

Test [5] deals with T2, Protein kinase C beta type (Homo sapiens, UniProt P05771). Put plainly: Inhibitory concentration against recombinant human Protein kinase C beta 2 isozyme.
T2 sequence (P05771 whole entry): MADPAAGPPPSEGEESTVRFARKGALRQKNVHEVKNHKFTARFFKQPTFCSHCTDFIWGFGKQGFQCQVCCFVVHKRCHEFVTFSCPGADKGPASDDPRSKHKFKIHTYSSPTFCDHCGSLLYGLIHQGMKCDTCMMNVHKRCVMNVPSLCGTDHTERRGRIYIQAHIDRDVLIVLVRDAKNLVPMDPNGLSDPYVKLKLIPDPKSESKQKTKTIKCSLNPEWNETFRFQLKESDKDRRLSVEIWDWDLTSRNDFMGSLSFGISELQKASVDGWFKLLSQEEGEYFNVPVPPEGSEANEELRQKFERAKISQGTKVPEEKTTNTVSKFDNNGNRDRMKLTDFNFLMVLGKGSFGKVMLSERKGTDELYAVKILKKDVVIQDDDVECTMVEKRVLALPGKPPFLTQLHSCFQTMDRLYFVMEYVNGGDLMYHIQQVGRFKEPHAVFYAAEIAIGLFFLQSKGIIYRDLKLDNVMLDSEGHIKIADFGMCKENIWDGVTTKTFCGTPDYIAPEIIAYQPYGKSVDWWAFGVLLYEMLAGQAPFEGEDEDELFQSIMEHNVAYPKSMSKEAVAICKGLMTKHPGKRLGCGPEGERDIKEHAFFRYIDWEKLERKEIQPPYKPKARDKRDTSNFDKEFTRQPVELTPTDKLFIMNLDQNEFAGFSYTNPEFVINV
The target in test [6] is T3, Protein kinase C epsilon type (Homo sapiens, UniProt Q02156).
T3 sequence (Q02156 whole entry): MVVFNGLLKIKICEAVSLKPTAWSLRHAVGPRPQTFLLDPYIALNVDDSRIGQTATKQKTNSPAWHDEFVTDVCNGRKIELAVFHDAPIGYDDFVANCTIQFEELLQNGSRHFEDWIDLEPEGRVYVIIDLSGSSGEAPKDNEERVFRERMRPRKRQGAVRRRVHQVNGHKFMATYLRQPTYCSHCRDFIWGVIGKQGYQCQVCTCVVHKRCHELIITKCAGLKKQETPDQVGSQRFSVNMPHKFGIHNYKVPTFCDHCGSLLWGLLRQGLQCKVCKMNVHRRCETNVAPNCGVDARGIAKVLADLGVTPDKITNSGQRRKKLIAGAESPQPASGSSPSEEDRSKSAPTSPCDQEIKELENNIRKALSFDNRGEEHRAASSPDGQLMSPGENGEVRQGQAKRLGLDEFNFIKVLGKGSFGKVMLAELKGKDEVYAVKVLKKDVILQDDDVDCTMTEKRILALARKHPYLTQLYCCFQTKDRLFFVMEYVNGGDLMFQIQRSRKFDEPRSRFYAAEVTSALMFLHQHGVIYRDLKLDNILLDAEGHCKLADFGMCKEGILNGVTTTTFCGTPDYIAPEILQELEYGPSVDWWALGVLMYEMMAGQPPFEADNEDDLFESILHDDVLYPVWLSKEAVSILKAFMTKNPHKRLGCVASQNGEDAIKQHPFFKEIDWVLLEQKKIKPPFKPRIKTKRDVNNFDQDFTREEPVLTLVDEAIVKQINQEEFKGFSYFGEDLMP
Put plainly: Inhibitory concentration against recombinant human Protein kinase C epsilon isozyme.

For test [7], the target named is Protein kinase C eta type (Homo sapiens, UniProt P24723). Put plainly: Inhibitory concentration against recombinant human Protein kinase C eta isozyme.
Protein kinase C eta type, sequence (P24723 whole entry): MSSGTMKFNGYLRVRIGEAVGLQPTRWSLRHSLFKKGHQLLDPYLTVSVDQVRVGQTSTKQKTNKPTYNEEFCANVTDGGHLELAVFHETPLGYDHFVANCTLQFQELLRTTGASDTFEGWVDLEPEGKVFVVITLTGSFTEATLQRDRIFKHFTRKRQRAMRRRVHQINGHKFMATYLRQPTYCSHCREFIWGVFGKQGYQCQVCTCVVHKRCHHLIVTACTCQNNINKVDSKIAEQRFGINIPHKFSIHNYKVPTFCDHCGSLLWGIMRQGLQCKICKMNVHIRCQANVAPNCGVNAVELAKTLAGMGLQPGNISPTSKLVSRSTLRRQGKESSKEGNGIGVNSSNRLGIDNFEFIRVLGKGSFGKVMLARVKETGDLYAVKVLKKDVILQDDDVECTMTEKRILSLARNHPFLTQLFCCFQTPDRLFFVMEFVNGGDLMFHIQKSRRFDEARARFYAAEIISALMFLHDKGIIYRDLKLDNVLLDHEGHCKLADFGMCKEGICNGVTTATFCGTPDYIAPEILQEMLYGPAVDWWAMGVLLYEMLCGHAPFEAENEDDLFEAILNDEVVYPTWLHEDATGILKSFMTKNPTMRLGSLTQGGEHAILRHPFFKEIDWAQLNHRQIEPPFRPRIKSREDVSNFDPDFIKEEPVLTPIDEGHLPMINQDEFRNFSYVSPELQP
Test [8] has as its target T2, Protein kinase C beta type. The experiment in a line: Inhibitory concentration against recombinant human Protein kinase C beta 1 isozyme.
The target in test [9] is Protein kinase C delta type (Homo sapiens, UniProt Q05655). Put plainly: Inhibitory concentration against recombinant human Protein kinase C delta isozyme.
Protein kinase C delta type, sequence (Q05655 whole entry): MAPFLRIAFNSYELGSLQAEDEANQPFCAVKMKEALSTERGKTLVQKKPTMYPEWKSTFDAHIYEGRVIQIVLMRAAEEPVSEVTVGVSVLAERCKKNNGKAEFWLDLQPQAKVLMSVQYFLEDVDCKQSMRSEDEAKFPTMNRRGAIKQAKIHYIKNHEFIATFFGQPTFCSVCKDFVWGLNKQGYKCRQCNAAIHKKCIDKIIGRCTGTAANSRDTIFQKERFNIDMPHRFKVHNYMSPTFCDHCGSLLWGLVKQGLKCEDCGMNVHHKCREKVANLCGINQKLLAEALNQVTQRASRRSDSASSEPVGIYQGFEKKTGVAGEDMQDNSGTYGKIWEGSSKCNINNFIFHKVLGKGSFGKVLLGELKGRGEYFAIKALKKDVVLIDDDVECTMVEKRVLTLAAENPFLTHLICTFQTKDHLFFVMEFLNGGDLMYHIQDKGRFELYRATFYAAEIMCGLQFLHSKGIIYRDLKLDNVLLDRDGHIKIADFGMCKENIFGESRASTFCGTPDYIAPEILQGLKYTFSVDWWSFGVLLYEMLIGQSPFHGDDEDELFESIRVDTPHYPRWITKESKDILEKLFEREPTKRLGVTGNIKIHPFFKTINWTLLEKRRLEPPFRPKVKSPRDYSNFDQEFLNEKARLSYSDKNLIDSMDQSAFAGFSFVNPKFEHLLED

For the molecule `O=C(N[C@@H]1C2CC(C3CCCC32)[C@H]1OC(=O)c1cc(O)c(C(=O)c2c(O)cccc2C(=O)O)c(O)c1)c1ccc(O)cc1` (stereo partly drawn), in test [1], the IC50 amounted to 32000 nM.
With `O=C(N[C@@H]1CCCCC[C@H]1OC(=O)c1cc(O)c(C(=O)c2c(O)cccc2C(=O)O)c(O)c1)c1ccc(O)cc1`, the IC50 in [1] was found to be 1400 nM.
In the case of `O=C(N[C@@H]1COCCC[C@H]1OC(=O)c1cc(O)c(C(=O)c2c(O)cccc2C(=O)O)c(O)c1)c1ccc(O)cc1`, the IC50 is 6700 nM in test [2]; 1000 nM in [3]; above 150000 nM in test [4]; 3300 nM in [5]; 16000 nM in test [6]; 10 nM in [7]. The half-inhibitory concentration (IC50) in [1] was 450 nM; in test [8] it was 2500 nM; in test [9] it was 90 nM.
For the molecule `O=C(N[C@@H]1CC(O)C[C@H]1OC(=O)c1cc(O)c(C(=O)c2c(O)cccc2C(=O)O)c(O)c1)c1ccc(O)cc1` (stereo partly drawn), the IC50 in [2] turned out to be 40 nM; in [3] it was 20 nM; in test [5], 10 nM; in test [6] it was 100 nM; in test [7] it was 3 nM; in test [1], 130 nM. For the same molecule, the IC50 in test [8] stood at 20 nM; in [9] it was 5 nM.
For `CN1C2CCC1C(NC(=O)c1ccc(O)cc1)C(OC(=O)c1cc(O)c(C(=O)c3c(O)cccc3C(=O)O)c(O)c1)C2` (stereo not drawn), in [1], the IC50 was above 50000 nM.
With `NC[C@H]1C[C@@H](NC(=O)c2ccc(O)cc2)[C@H](OC(=O)c2cc(O)c(C(=O)c3c(O)cccc3C(=O)O)c(O)c2)C1`, the half-maximal inhibitory concentration (IC50) in [2] was 20 nM; in test [3] it was 5 nM; in [4], 2800 nM; in test [5] it was 4 nM; in [6], 30 nM; in test [7], 3 nM. Moreover, the IC50 stood at 170 nM in [1], 4 nM in test [8] and 6 nM in test [9].
Turning to `O=C(N[C@@H]1C[C@@H](O)C[C@H]1OC(=O)c1cc(O)c(C(=O)c2c(O)cccc2C(=O)O)c(O)c1)c1ccc(O)cc1`, the IC50 was determined as 50 nM in test [2]; 30 nM in [3]; 20 nM in test [5]; 150 nM in test [6]; 4 nM in test [7]; 250 nM in test [1]. Moreover, the IC50 was 30 nM in [8] and 6 nM in [9].
As to `CC1(C)C2CCC1(C)[C@@H](OC(=O)c1cc(O)c(C(=O)c3c(O)cccc3C(=O)O)c(O)c1)[C@@H]2NC(=O)c1ccc(O)cc1` (stereo partly drawn), the IC50 in test [2] was 410 nM; in [3] it was 210 nM; in [4] it was above 50000 nM; in test [5], 80 nM; in [6] it was 3600 nM; in test [7], 310 nM. Moreover, the IC50 turned out to be 26000 nM in test [1], 310 nM in [8] and 340 nM in [9].
As to `N[C@@H]1C[C@@H](NC(=O)c2ccc(O)cc2)[C@H](OC(=O)c2cc(O)c(C(=O)c3c(O)cccc3C(=O)O)c(O)c2)C1`, the IC50 in [2] turned out to be 20 nM; in test [3] it was 5 nM; in [4], 1200 nM; in test [5], 2 nM; in test [6] it was 10 nM; in [7] it was 3 nM. Moreover, the IC50 was determined as 50 nM in [1], 4 nM in [8] and 5 nM in test [9].
As to `CC(=O)N1C[C@@H](NC(=O)c2ccc(O)cc2)[C@H](OC(=O)c2cc(O)c(C(=O)c3c(O)cccc3C(=O)O)c(O)c2)C1`, the IC50 was 1200 nM in [2]; 390 nM in [3]; above 150000 nM in [4]; 820 nM in test [5]; 3700 nM in test [6]; 30 nM in [7]. Also, the IC50 was 3600 nM in [1], 710 nM in [8] and 60 nM in test [9].
Turning to `O=C(N[C@@H]1CNC[C@H]1OC(=O)c1cc(O)c(C(=O)c2c(O)cccc2C(=O)O)c(O)c1)c1ccc(O)cc1`, the IC50 in test [1] worked out at 70 nM.
For `O=C(N[C@@H]1CNCC[C@H]1OC(=O)c1cc(O)c(C(=O)c2c(O)cccc2C(=O)O)c(O)c1)c1ccc(O)cc1`, the IC50 in [7] is 90 nM; in test [1], 350 nM.
`O=C(N[C@@H]1C[C@@H](CO)C[C@H]1OC(=O)c1cc(O)c(C(=O)c2c(O)cccc2C(=O)O)c(O)c1)c1ccc(O)cc1`: the IC50 in test [2] amounted to 80 nM; in [3], 50 nM; in test [5] it was 20 nM; in test [6], 270 nM; in [7], 20 nM; in test [1] it was 220 nM. Besides, the IC50 stood at 60 nM in test [8] and 20 nM in test [9].
As for `O=C(N[C@@H]1C[C@H](CO)C[C@H]1OC(=O)c1cc(O)c(C(=O)c2c(O)cccc2C(=O)O)c(O)c1)c1ccc(O)cc1`, the IC50 was 10 nM in [2]; 5 nM in [3]; 3 nM in test [5]; 160 nM in test [6]; 2 nM in test [7]; 230 nM in test [1]. Besides, the IC50 in test [8] and in test [9] was 4 nM throughout.
`O=C(N[C@@H]1CSCCC[C@H]1OC(=O)c1cc(O)c(C(=O)c2c(O)cccc2C(=O)O)c(O)c1)c1ccc(O)cc1`: the IC50 in test [2] amounted to 3300 nM; in test [3], 1000 nM; in test [5], 2400 nM; in [6], 5900 nM; in test [7], 100 nM; in test [1] it was 7500 nM. Besides, the IC50 in test [8] amounted to 3800 nM; in test [9] it was 90 nM.
Consider `CC(C)N1C[C@@H](NC(=O)c2ccc(O)cc2)[C@H](OC(=O)c2cc(O)c(C(=O)c3c(O)cccc3C(=O)O)c(O)c2)C1`, for which the IC50 in test [2] is 240 nM; in [3], 90 nM; in test [5], 70 nM; in test [6], 50 nM; in test [7], 4 nM; in test [1] it was below 330 nM. Further, the concentration for half-maximal inhibition (IC50) turned out to be 60 nM in test [8] and 40 nM in [9].
With `O=C(N[C@H]1CNCCC[C@@H]1OC(=O)c1cc(O)c(C(=O)c2c(O)cccc2C(=O)O)c(O)c1)c1ccc(O)cc1`, the IC50 is 3000 nM in test [2]; 400 nM in test [3]; above 150000 nM in test [4]; 880 nM in test [5]; 260 nM in test [7]; 500 nM in test [8]. In addition, in test [9], the IC50 worked out at 420 nM.
Take `O=C(N[C@@H]1CN2CCC(CC2)[C@H]1OC(=O)c1cc(O)c(C(=O)c2c(O)cccc2C(=O)O)c(O)c1)c1ccc(O)cc1`: the 50% inhibitory concentration (IC50) in test [2] amounted to 410 nM; in test [3], 140 nM; in [5], 69 nM; in [6] it was 170 nM; in [7] it was 26 nM; in [1] it was 1700 nM. The IC50 in test [8] was 26 nM; in test [9], 110 nM.
`O=C(N[C@@H]1C2CCC(C2)[C@H]1OC(=O)c1cc(O)c(C(=O)c2c(O)cccc2C(=O)O)c(O)c1)c1ccc(O)cc1` (stereo partly drawn): the IC50 worked out at 60 nM in test [2]; 40 nM in test [3]; 30 nM in test [5]; 30 nM in test [6]; 20 nM in test [7]; 1900 nM in [1]. Moreover, the IC50 stood at 50 nM in test [8] and 20 nM in test [9].
Regarding `O=C(NC1CNCCCC1OC(=O)c1cc(O)c(C(=O)c2c(O)cccc2C(=O)O)c(O)c1)c1ccc(O)cc1` (racemic), the IC50 in [2] stood at 70 nM; in [4], 3500 nM; in test [9], 20 nM.
Take `O=C(N[C@@H]1CNCCC[C@H]1OC(=O)c1cc(O)c(C(=O)c2c(O)cccc2C(=O)O)c(O)c1)c1ccc(O)cc1` [BALANOL]: the figures for the half-maximal inhibitory concentration (IC50) in test [3], in [4] and in test [9] were 20 nM, 7400 nM and 4 nM, respectively.
